{"source": "ChEMBL document CHEMBL3885881", "about": "“DrugMatrix”", "key": {"[1]": {"species": "Rattus norvegicus", "type": "toxicity, organism-based, Sprague-Dawley", "settings": "in vivo, po, 17 mg/kg, 24 h, route oral GAVAGE, dose level High, time 1 day, vehicle .5 % CMC", "description": "DrugMatrix - Regimen: Single"}, "[2]": {"species": "Rattus norvegicus", "test": "DrugMatrix - Regimen: Daily Repeat", "type": "toxicity, organism-based, Sprague-Dawley", "parameters": "regimen Daily Repeat, gender Male, age 6-8 weeks", "settings": "in vivo, po, 17 mg/kg, 72 h, route oral GAVAGE, dose level High, time 3 day, vehicle .5 % CMC"}}}
{"smiles": "COc1ccc(C(=O)Nc2c(Cl)cncc2Cl)cc1OC1CCCC1", "values": [{"measurement": "ABSOLUTE EOSINOPHIL", "setting": "[1]; tissue Blood", "value": 176.33, "unit": "CELLS/uL"}, {"measurement": "ABSOLUTE LYMPHOCYTE", "setting": "[1]; tissue Blood", "value": 11028.33, "unit": "CELLS/uL"}, {"measurement": "ABSOLUTE MONOCYTE", "setting": "[1]; tissue Blood", "value": 409.33, "unit": "CELLS/uL"}, {"measurement": "ABSOLUTE SEGMENTED NEUTROPHIL", "setting": "[1]; tissue Blood", "value": 1619.33, "unit": "CELLS/uL"}, {"measurement": "BASOPHIL", "setting": "[1]; tissue Blood", "value": 0, "unit": "%"}, {"measurement": "EOSINOPHIL", "setting": "[1]; tissue Blood", "value": 1.33, "unit": "%"}, {"measurement": "ERYTHROCYTE COUNT", "setting": "[1]; tissue Blood", "value": 5.33, "unit": "x10E6/uL"}, {"measurement": "HEMATOCRIT", "setting": "[1]; tissue Blood", "value": 33.03, "unit": "%"}, {"measurement": "HEMOGLOBIN", "setting": "[1]; tissue Blood", "value": 12.1, "unit": "G/DL"}, {"measurement": "LEUKOCYTE COUNT", "setting": "[1]; tissue Blood", "value": 13.23, "unit": "x10E3/uL"}, {"measurement": "LYMPHOCYTE", "setting": "[1]; tissue Blood", "value": 83.33, "unit": "%"}, {"measurement": "MEAN CORPUSCULAR HEMOGLOBIN", "setting": "[1]; tissue Blood", "value": 22.7, "unit": "pg"}, {"measurement": "MEAN CORPUSCULAR HEMOGLOBIN CONCENTRATION", "setting": "[1]; tissue Blood", "value": 36.67, "unit": "G/DL"}, {"measurement": "MEAN CORPUSCULAR VOLUME", "setting": "[1]; tissue Blood", "value": 61.9, "unit": "fL"}, {"measurement": "MONOCYTE", "setting": "[1]; tissue Blood", "value": 3, "unit": "%"}, {"measurement": "NEUTROPHIL", "setting": "[1]; tissue Blood", "value": 12.33, "unit": "%"}, {"measurement": "NUCLEATED RED BLOOD CELLS", "setting": "[1]; tissue Blood", "value": "0 /100WBC"}, {"measurement": "PLATELET COUNT", "setting": "[1]; tissue Blood", "value": 1139, "unit": "x10E3/uL"}, {"measurement": "ALANINE AMINOTRANSFERASE", "setting": "[1]; tissue Plasma", "value": 61.33, "unit": "u/L"}, {"measurement": "ALBUMIN", "setting": "[1]; tissue Plasma", "value": 4.37, "unit": "G/DL"}, {"measurement": "ALKALINE PHOSPHATASE", "setting": "[1]; tissue Plasma", "value": 327.67, "unit": "u/L"}, {"measurement": "ASPARTATE AMINOTRANSFERASE", "setting": "[1]; tissue Plasma", "value": 116, "unit": "u/L"}, {"measurement": "BLOOD UREA NITROGEN", "setting": "[1]; tissue Plasma", "value": 15.67, "unit": "mg/dL"}, {"measurement": "CARBON DIOXIDE", "setting": "[1]; tissue Plasma", "value": 34.33, "unit": "mmol/L"}, {"measurement": "CHLORIDE", "setting": "[1]; tissue Plasma", "value": 101.33, "unit": "MEQ/L"}, {"measurement": "CHOLESTEROL", "setting": "[1]; tissue Plasma", "value": 76, "unit": "mg/dL"}, {"measurement": "CREATININE", "setting": "[1]; tissue Plasma", "value": 0.2, "unit": "mg/dL"}, {"measurement": "GLUCOSE", "setting": "[1]; tissue Plasma", "value": 153.67, "unit": "mg/dL"}, {"measurement": "LACTATE DEHYDROGENASE", "setting": "[1]; tissue Plasma", "value": 163.33, "unit": "u/L"}, {"measurement": "LIPASE", "setting": "[1]; tissue Plasma", "value": 9, "unit": "u/L"}, {"measurement": "PHOSPHORUS", "setting": "[1]; tissue Plasma", "value": 12.6, "unit": "mg/dL"}, {"measurement": "POTASSIUM", "setting": "[1]; tissue Plasma", "value": 6.66, "unit": "MEQ/L"}, {"measurement": "SODIUM", "setting": "[1]; tissue Plasma", "value": 148.6, "unit": "MEQ/L"}, {"measurement": "TOTAL BILIRUBIN", "setting": "[1]; tissue Plasma", "value": 0.2, "unit": "mg/dL"}, {"measurement": "TOTAL PROTEIN", "setting": "[1]; tissue Plasma", "value": 6.3, "unit": "G/DL"}, {"measurement": "URIC ACID", "setting": "[1]; tissue Plasma", "value": 1.2, "unit": "mg/dL"}, {"measurement": "ABSOLUTE BASOPHIL", "setting": "[2]; tissue Blood", "value": 0, "unit": "CELLS/uL"}, {"measurement": "ABSOLUTE EOSINOPHIL", "setting": "[2]; tissue Blood", "value": 110.33, "unit": "CELLS/uL"}, {"measurement": "ABSOLUTE LYMPHOCYTE", "setting": "[2]; tissue Blood", "value": 17172, "unit": "CELLS/uL"}, {"measurement": "ABSOLUTE MONOCYTE", "setting": "[2]; tissue Blood", "value": 305.67, "unit": "CELLS/uL"}, {"measurement": "ABSOLUTE SEGMENTED NEUTROPHIL", "setting": "[2]; tissue Blood", "value": 3612, "unit": "CELLS/uL"}, {"measurement": "BASOPHIL", "setting": "[2]; tissue Blood", "value": 0, "unit": "%"}, {"measurement": "EOSINOPHIL", "setting": "[2]; tissue Blood", "value": 0.67, "unit": "%"}, {"measurement": "ERYTHROCYTE COUNT", "setting": "[2]; tissue Blood", "value": 5.87, "unit": "x10E6/uL"}, {"measurement": "HEMATOCRIT", "setting": "[2]; tissue Blood", "value": 36.6, "unit": "%"}, {"measurement": "HEMOGLOBIN", "setting": "[2]; tissue Blood", "value": 13.33, "unit": "G/DL"}, {"measurement": "LEUKOCYTE COUNT", "setting": "[2]; tissue Blood", "value": 21.2, "unit": "x10E3/uL"}, {"measurement": "LYMPHOCYTE", "setting": "[2]; tissue Blood", "value": 82.67, "unit": "%"}, {"measurement": "MEAN CORPUSCULAR HEMOGLOBIN", "setting": "[2]; tissue Blood", "value": 22.73, "unit": "pg"}, {"measurement": "MEAN CORPUSCULAR HEMOGLOBIN CONCENTRATION", "setting": "[2]; tissue Blood", "value": 36.47, "unit": "G/DL"}, {"measurement": "MEAN CORPUSCULAR VOLUME", "setting": "[2]; tissue Blood", "value": 62.43, "unit": "fL"}, {"measurement": "MONOCYTE", "setting": "[2]; tissue Blood", "value": 1.33, "unit": "%"}, {"measurement": "NEUTROPHIL", "setting": "[2]; tissue Blood", "value": 15.33, "unit": "%"}, {"measurement": "NUCLEATED RED BLOOD CELLS", "setting": "[2]; tissue Blood", "value": "0 /100WBC"}, {"measurement": "PLATELET COUNT", "setting": "[2]; tissue Blood", "value": 1117.33, "unit": "x10E3/uL"}, {"measurement": "ALANINE AMINOTRANSFERASE", "setting": "[2]; tissue Plasma", "value": 51.67, "unit": "u/L"}, {"measurement": "ALBUMIN", "setting": "[2]; tissue Plasma", "value": 3.77, "unit": "G/DL"}, {"measurement": "ALKALINE PHOSPHATASE", "setting": "[2]; tissue Plasma", "value": 361.67, "unit": "u/L"}, {"measurement": "ASPARTATE AMINOTRANSFERASE", "setting": "[2]; tissue Plasma", "value": 68.67, "unit": "u/L"}, {"measurement": "BLOOD UREA NITROGEN", "setting": "[2]; tissue Plasma", "value": 17.33, "unit": "mg/dL"}, {"measurement": "CARBON DIOXIDE", "setting": "[2]; tissue Plasma", "value": 31.33, "unit": "mmol/L"}, {"measurement": "CHLORIDE", "setting": "[2]; tissue Plasma", "value": 103, "unit": "MEQ/L"}, {"measurement": "CHOLESTEROL", "setting": "[2]; tissue Plasma", "value": 74.67, "unit": "mg/dL"}, {"measurement": "CREATININE", "setting": "[2]; tissue Plasma", "value": 0.18, "unit": "mg/dL"}, {"measurement": "GLUCOSE", "setting": "[2]; tissue Plasma", "value": 188.33, "unit": "mg/dL"}, {"measurement": "LACTATE DEHYDROGENASE", "setting": "[2]; tissue Plasma", "value": 139, "unit": "u/L"}, {"measurement": "LIPASE", "setting": "[2]; tissue Plasma", "value": 9.33, "unit": "u/L"}, {"measurement": "PHOSPHORUS", "setting": "[2]; tissue Plasma", "value": 12.77, "unit": "mg/dL"}, {"measurement": "POTASSIUM", "setting": "[2]; tissue Plasma", "value": 6.6, "unit": "MEQ/L"}, {"measurement": "SODIUM", "setting": "[2]; tissue Plasma", "value": 149.03, "unit": "MEQ/L"}, {"measurement": "TOTAL BILIRUBIN", "setting": "[2]; tissue Plasma", "value": 0.13, "unit": "mg/dL"}, {"measurement": "TOTAL PROTEIN", "setting": "[2]; tissue Plasma", "value": 6.1, "unit": "G/DL"}, {"measurement": "URIC ACID", "setting": "[2]; tissue Plasma", "value": 2.07, "unit": "mg/dL"}]}
